Results as given in ChEMBL document CHEMBL1123697, “Heteroatom-activated beta-lactam antibiotics: considerations of differences in the biological activity of [[3(S)-(acylamino)-2-oxo-1-azetidinyl]oxy]acetic acids (oxamazins) and the corresponding sulfur analogues (thiamazins)” (J Med Chem, 1987).

Assays:
Format in all cases: ADME
Conditions in all cases: buffer
[1] = Pseudo first order rate constant for the alkaline hydrolysis of beta-lactams (35 degree Celsius) was determined at pH 10
[2] = Half life at pH 10
[3] = Pseudo first order rate constant for the alkaline hydrolysis of beta-lactams (35 degree Celsius) was determined at pH 11
[4] = Half life at pH 11

k [1] [h⁻¹] | half-life [2] [h] | k [3] [h⁻¹] | half-life [4] [h] | Structure (SMILES)
0.31 | 2.2 | – | – | C[C@H]1[C@H](NC(=O)Cc2ccccc2)C(=O)N1OCC(=O)O
– | – | 0.029 | 24 | C[C@@H]1NC(=O)[C@H]1NC(=O)OCc1ccccc1
0.73 | 0.95 | – | – | C[C@H]1[C@H](NC(=O)Cc2ccccc2)C(=O)N1SCC(=O)[O-].[K+]

Structure (SMILES) | k [1] [h⁻¹] | half-life [2] [h] | k [3] [h⁻¹] | half-life [4] [h]
C[C@H]1[C@H](NC(=O)/C(=N\OC(C)(C)C(=O)O)c2csc(N)n2)C(=O)N1S(=O)(=O)O [AZTREONAM] | 0.4 | – | – | –
